The assay addresses T1, Ech (enoyl-CoA hydratase/aldolase) (Streptomyces sp. V-1, UniProt S5LPF1).
T1 construct: ATCC 39116
T1 sequence (S5LPF1 1-287): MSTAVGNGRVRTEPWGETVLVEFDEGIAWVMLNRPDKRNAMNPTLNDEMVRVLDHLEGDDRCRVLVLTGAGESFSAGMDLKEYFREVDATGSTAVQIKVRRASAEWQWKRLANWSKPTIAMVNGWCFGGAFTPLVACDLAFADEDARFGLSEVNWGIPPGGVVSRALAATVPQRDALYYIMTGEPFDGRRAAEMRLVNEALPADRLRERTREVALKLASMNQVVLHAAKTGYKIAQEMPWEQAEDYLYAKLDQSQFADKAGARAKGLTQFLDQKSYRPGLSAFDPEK
Briefly: coupled assay with purified Fcs, GC analysis (qualitative). The format is biochemical. As to conditions: feruloyl-CoA made in situ from 0.7 mM ferulic acid by Fcs; 2 mM ATP, 0.4 mM CoA, 2.5 mM MgCl2, 100 mM potassium phosphate pH 7.0.

As to `COc1cc(C=O)ccc1O` [vanillin, 4-hydroxy-3-methoxybenzaldehyde], the “coupled assay with purified Fcs, GC analysis (qualitative)” value is “production of vanillin, catalyzed by Ech, were observed and analyzed qualitatively from the GC spectrum”.

Source of the values: article PMC3696112 (PLoS ONE, 2013).
